Data reported in PMC8101618, “Comparable Initial Engagement of Intracellular Signaling Pathways by Parathyroid Hormone Receptor Ligands Teriparatide, Abaloparatide, and Long‐Acting PTH” (JBMR Plus, 2021).

Tests used:
SIK = conditions: cultured osteocytes and in vivo; cited from earlier work
Description: Although it is well‐established that PTH‐mediated increases in bone formation require actions in osteocytes,^( ^19 , ^23 ^) the signaling events downstream of the PTH1R in osteocytes have remained elusive. We recently described a new signaling pathway that relays information from the PTH1R to the nucleus in osteocytes.^( ^24 ^) A crucial step in this cascade involves cyclic AMP (cAMP)‐mediated inhibition of salt inducible kinase 2 (SIK2). Importantly, PTH1R‐induced SIK2 phosphorylation/inactivation occurs rapidly (within 1 min of receptor engagement by hPTH (1‐34)) and then diminishes.^( ^24 ^ ...

PTH1R = conditions: cited from earlier work
Description: Recruitment of the intracellular scaffolding proteins β‐arrrestin1/2 is a well‐characterized step that occurs following activation and GRK‐dependent phosphorylation in multiple G‐Protein‐Coupled Receptors (GPCRs) signaling systems.^( ^39 ^) β‐arrestin recruitment is traditionally thought to lead to signal termination due to receptor internalization.

HDAC4 S246, HDAC5 S259 = experiment: HDAC4/5 phosphorylation immunoblotting in Ocy454 cells; assay type: cell-based, murine; conditions: 10nM, 1 hour (Supplementary Fig. S1)
Procedure: For immunoblotting, cells were prepared as described.^( ^37 ^) Whole cell lysates were prepared using TNT (Tris‐NaCl‐Tween buffer, 20mM Tris‐HCl pH 8, 200mM NaCl, 0.5% Triton X‐100 containing protease inhibitor [PI], 1mM NaF, 1mM dithiothreitol [DTT], 1mM vanadate). Adherent cells were washed with ice cold PBS, then scraped into TNT buffer on ice. Material was then transferred into Eppendorf tubes kept on ice, vortexed at top speed for 30 s, then centrifuged at 14,000g for 6 min at 4°C. For immunoblotting, lysates or immunoprecipitates were separated by SDS‐PAGE and proteins were transferred to nitrocellulose. […] The next day, membranes were washed, incubated with appropriate horseradish peroxidase (HRP)‐coupled secondary antibodies, and signals were detected with ECL Western Blotting Substrate (Pierce, Rockford, IL, USA), ECL Plus Western Blotting Substrate (Pierce), or SuperSignal West Femto Maximum Sensitivity Substrate (Thermo Scientific, Waltham, MA, USA). […] Quantification was performed using ImageJ.
In cells, SIKs are constitutively active kinases due to upstream LKB1 activation loop phosphorylation,^( ^45 ^) and therefore constitutively phosphorylate their substrates. […] We assessed the effects of different PTH ligands on class IIa HDAC and CRTC phosphorylation at well‐documented SIK phosphorylation sites: HDAC4 S246, HDAC5 S259, and CRTC2 S275. […]

[1] = test system: human PTH1R-pHluorin2-GFP; experiment: internalization using GFP^pHs fluorescence (GPG-10 cells); assay type: cell-based; conditions: continuous treatment 90 min, range of doses; ratio 485/405 nm excitation, emission 535 nm; pH 7.4; n = 6 independent experiments
Procedure: Receptor internalization was assessed in the HEK293 cell line stably transfected with human PTH1R‐pHluorin2‐GFP (GPG‐10 cells).^( ^33 , ^34 ^) Confluent monolayers of cells in black‐walled, 96‐well plates were incubated in HBSS with BSA (0.1% wt/vol) and HEPES buffer (pH 7.4, 10mM). Peptides were added and wells were analyzed by recording fluorescence readouts with excitation at 485 or 405 nm and emission at 535 nm. Data were analyzed as a ratio of fluorescence intensity following excitation at 485/405 nm over the course of 90 min, and the area under the curve (AUC) values for each time course were plotted as a function of ligand concentration.
A complementary approach was used to visualize ligand‐dependent colocalization of PTH1R and β‐arrestin2. For this, β‐arrestin2‐YFP–expressing cells were transiently transduced with a plasmid encoding a dsRed‐tagged version of human PTH1R. […] In that study, multiple ligand concentrations were used and the responses were assessed at the peak response time, which was generally ~5 min after ligand addition.^( ^42 ^) To explore differences in receptor internalization in more detail, we used constructs where the PTH receptor is fused to a pH‐sensitive GFP variant (GFP^pHs) which changes its fluorescent signal in acidic endosomes. […]

human PTH1R = experiment: β-arrestin2-YFP clustering in GBR-24 cells; assay type: cell-based; conditions: TMR-labeled ligands 30nM, 15 min, room temperature; β-arrestin2-YFP HEK293 cells (GBR-24) transiently transfected with human PTH1R
Procedure: Recruitment of β‐arrestin was assessed in HEK293 cells stably transfected to express β‐arrestin2‐YFP^( ^36 ^) and glosensor (GBR‐24 cells)^( ^34 ^) and transiently transfected to express the hPTH1R or mDsRed‐hPTH1R in which the monomeric Discosoma sp. red fluorescent protein is inserted in the E2 region of the receptor's extracellular domain. Cells were treated with each PTH1R ligand and imaged by fluorescent microscopy as described above (see 2.4 Internalization). The quantification of colocalizations between β‐arrestin2YFP and TMR‐ligands were performed by ImageJ software (NIH, Bethesda, MD, USA; https://imagej.nih.gov/ij/) using Just Another Colocalization Plugin (JACoP) and indicated as cytofluorograms.
Recruitment of the intracellular scaffolding proteins β‐arrrestin1/2 is a well‐characterized step that occurs following activation and GRK‐dependent phosphorylation in multiple G‐Protein‐Coupled Receptors (GPCRs) signaling systems.^( ^39 ^) β‐arrestin recruitment is traditionally thought to lead to signal termination due to receptor internalization. […] For this, HEK293 cells stably expressing YFP‐tagged β‐arrestin2 (GBR‐24 cells) were transiently transfected with human PTH1R cDNA, then treated with TMR‐labeled PTH ligands at 30nM for 15 min at room temperature. Thereafter, cells were rinsed, fixed, and viewed by epifluorescent microscopy.

Compound | PTH-mimicking action (SIK) | intracellular signaling or PTH1R internalization (PTH1R) | SIK substrate phosphorylation and gene expression changes (HDAC4 S246, HDAC5 S259) | PTH1R internalization (AUC of GFP^pHs fluorescence ratio) [1] | β-arrestin2 clustering/recruitment (human PTH1R)
COc1ccc(N2C(=O)N(c3c(C)cccc3Cl)Cc3cnc(Nc4ccc(C5CCN(C)CC5)cc4OC)nc32)nc1 [YKL‐05‐099] | mimic PTH action in cultured osteocytes and in vivo | – | – | – | –
LNleHQLdWKWIQDARRRAWLHKLIAEIHTAEI.NH2 [PTH (7‐36), N‐truncated LA‐PTH analog used as a negative control] | – | does not induce intracellular signaling or PTH1R internalization | completely inactive | internalization‐deficient | fails to stimulate β‐arrestin2 recruitment
